Results filed as inconclusive are left out.
System: M. tuberculosis H37Rv growth inhibition, 7H9 media
Experiment: M. tuberculosis growth inhibition, HTS (AID 449762);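 note: bacterial growth assessed after seven days of incubation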
Conditions: for IC90: measured here: IC90 growth inhibition

| SMILES | IC50 | IC90 |
| --- | --- | --- |
| CCOc1ccc(CN(C)CC(O)COC(c2ccc(OC)cc2)c2ccc(OC)cc2)cc1 (stereo unspecified) | 10.5 µM | 13.4 µM |
| Nc1cc([N+](=O)[O-])ccc1Nc1ccc(O)cc1 | 30.4 µM | 34 µM |
| CC(C)(O)[C@H]1O[C@H]2CC[C@@]3(C)[C@@](O)(CC[C@H]4Cc5c([nH]c6ccccc56)[C@@]43C)C2=CC1=O | 42.2 µM | 63.9 µM |
| CCCCCCSc1nsc(NC(=O)CC(C)C)n1 |  | > 100 µM |
| Cn1cc(/C=C2\C(=O)NC(=O)N(c3ccccc3)C2=O)c2ccccc21 | 10.7 µM | 24.2 µM |
| COc1ccc(-c2cc(C3CCN(Cc4cccc(C(F)(F)F)c4)CC3)[nH]n2)cc1 | 10.6 µM | 15.9 µM |
| O=C(OCC(=O)N1CCCCC1)c1cc2ccccc2cc1O | 5 µM | 9.61 µM |
| O=C(NCc1ccccn1)C(=O)Nc1nc(C23CC4CC(CC(C4)C2)C3)cs1 | 1.75 µM | 5.26 µM |
| CC(C)(C)C1CCc2sc(-c3nnc(CCl)o3)cc2C1 (stereo unspecified) | < 0.2 µM | 5.54 µM |
| CCCCC(O)(CCCC)C(=O)NN(C(=O)CCl)c1ccccc1 | 3.9 µM | 10.5 µM |
| CCCCC(=O)/C=C/n1c(=S)oc2ccccc21 | 28.2 µM | > 100 µM |
| CCN(CC)CCOC(=O)c1ccc(N/C=C(/C#N)c2nc(-c3ccc4c(c3)OCO4)cs2)cc1 | 28.4 µM | 53.3 µM |
| Cc1cccc(C2=N/C(=C\c3cccs3)C(=O)O2)c1 | 2.68 µM | 15.5 µM |
| COc1ccccc1OC(=O)c1ccc(S(=O)(=O)N(C)C)cc1 | 9.96 µM | 18.4 µM |
| CCOC(=O)COn1c2c(c3c4no[n+]([O-])c4ccc31)CCCC2 | 3.16 µM | 5.83 µM |
| CC(C)(C)c1ccc(C(=O)N2CCN(CCNC(=O)C(=O)NCc3ccc(Cl)cc3)CC2)cc1 | 22.7 µM | 28.3 µM |
| O=c1oc(-c2cccs2)nc2c1cnn2-c1ccccc1 | 64.5 µM | > 100 µM |
| O=c1cc(-c2ccccc2Cl)oc2ccc([N+](=O)[O-])c(O)c12 | 11.9 µM | 15.6 µM |
| CCN=c1scc(-c2ccco2)n1/N=C/c1ccc(OC)c(O)c1 | 12.3 µM | 41.8 µM |
| CCCCOc1ccc(-c2nnn(C(C)C(=O)OCC)n2)cc1 (stereo unspecified) | 0.75 µM | 5.42 µM |
| CC[n+]1c(/C=C/N(C)c2ccccc2)n(-c2ccccc2)c2ccc(-c3nc4ccccc4s3)cc21 | 0.87 µM | 1.27 µM |
| CCOC(=O)CSc1ncc(OC)c(Sc2ccc(OC)cc2)n1 | 7.53 µM | 73.4 µM |
| O=C(CCl)N1CCCC1c1ccc2c(c1)OCCO2 (stereo unspecified) | 3.45 µM | 9.07 µM |

| SMILES | IC50 | IC90 |
| --- | --- | --- |
| CCCCCCCCNC(=O)CCNC(=O)c1ccc(C(C)(C)C)cc1 | 35.3 µM | 44.6 µM |
| CN1CCN(CC(=O)N2CCn3c4c(c5cc(C6CCCCC6)ccc53)CCCC42)CC1 (stereo unspecified) | 21.7 µM | 23.6 µM |
| Cc1c(Cl)ccc2sc(N3CCN(C(=O)C4=COCCO4)CC3)nc12 | 26.2 µM | 59 µM |
| COc1ccc(-c2c[n+]3c4n2CCCCC4=C(c2ccccc2)C3)cc1 | 35.5 µM | 43.7 µM |
| Cc1cc(C)c2cc(C(=O)Nc3ccc(C)c(F)c3)[nH]c2c1 | 0.94 µM | 1.69 µM |
| COc1ccc(/C=N/Nc2cc(N3CCCC3)nc(N3CCCC3)n2)cc1 | 16.3 µM | 25 µM |
| O=C1c2ccccc2C(=O)N1Nc1ccccc1 |  | > 100 µM |
| CCCCCc1ccc(S(=O)(=O)NCCc2ccncc2)cc1 | 34.1 µM | 42.8 µM |
| Cn1nc(C(C)(C)C)cc1NC(=O)Nc1cc(Cl)cc(Cl)c1 | 18.5 µM | 26.3 µM |
| CCCCOC(=O)CSc1nnc(-c2ccc(Cl)cc2Cl)o1 | < 0.2 µM | 1.85 µM |
| Cc1c(C(=O)N(C)C)sc2nc(-c3ccccn3)[nH]c(=O)c12 | 5.89 µM | 16.9 µM |
| COc1ccccc1-n1cc2c([N+](=O)[O-])cc([N+](=O)[O-])cc2n1 | < 0.2 µM | 3.18 µM |
| C=CCNc1oc(-c2ccc(-c3ccccc3)cc2)nc1C#N | 12.2 µM | 13.7 µM |
| COc1cc(OC)nc(Oc2ccccc2C(=O)Oc2ccc(Cl)cc2)n1 | 68.5 µM | > 100 µM |
| COC(=O)C1=C(c2ccc(OCc3ccccc3)cc2)C[C@@H]2CC[C@H]1N2C(=O)NC1CCN(Cc2ccccc2)CC1 | 24.4 µM | 27.5 µM |
| O=C(O)c1[nH]c(=O)[nH]c(=O)c1F | 4.58 µM | 14.2 µM |
| O=C(Nc1cccc(-c2ccc(N3CCCCC3)nn2)c1)c1ccc(Br)o1 | 16.5 µM | 42.4 µM |
| O=C(Cc1ccc([N+](=O)[O-])cc1)Nc1cc(C(F)(F)F)cc(C(F)(F)F)c1 | 2.74 µM | 3.12 µM |
| Cc1nc(Nc2ccc(Cl)c(Cl)c2)sc1C(=O)Nc1ccccc1 | 19.2 µM | > 100 µM |
| COc1ccc(-c2oc(NC(=O)CCl)c(C#N)c2-c2ccc(OC)cc2)cc1 | 12.5 µM | 54.7 µM |
| CCOC(=O)C(C)Sc1nc(-c2cccs2)ccc1C#N (stereo unspecified) | 37.6 µM | 50.8 µM |
| CCOc1ccc(NC(=S)Nc2cc(-c3ccccc3)[nH]n2)cc1 | 92.6 µM | > 100 µM |
| COc1cc(OC)nc(-n2ncc(Br)c(Br)c2=O)n1 | 4.28 µM | 60.7 µM |

| SMILES | IC50 | IC90 |
| --- | --- | --- |
| O=C(C[n+]1ccc(C(=O)N/N=C/c2ccc(O)cc2)cc1)c1ccccc1 | 4.47 µM | > 100 µM |
| Cc1nc(N2CCC(C)CC2)c2oc3ccccc3c2n1 | 24 µM | 45.4 µM |
| C/C(=N\NC(=O)c1cc2ccccc2cc1O)c1ccc(C)o1 | 10.1 µM | 36.3 µM |
| COC(=O)c1c(NC(=S)NN2CCN(C)CC2)sc2c1CCC(C)C2 (stereo unspecified) | 23 µM | 25.9 µM |
| CC(C)(C)c1nc2sc3c(c2c(=O)o1)CCCC3 |  | > 100 µM |
| CC[C@@H](C)[C@H](CN[C@H](CNC)C(C)C)NC[C@@H](C)c1ccc(CC(C)C)cc1 | 11.3 µM | 12.6 µM |
| CC(=O)c1ccc(Sc2nnnn2-c2ccccc2)c([N+](=O)[O-])c1 | 4.48 µM | 13.3 µM |
| CCCC12CN3CC(CCC)(CN(C1)C3c1ccccn1)C2=O (stereo unspecified) | 1.02 µM | 18.1 µM |
| Cc1ccc2cc(C)c(N3CCN(c4ccccn4)CC3)nc2c1 | 29.7 µM | 46.3 µM |
| C/C(=N\NC(N)=S)C1C2C3CC4C5CC(C42)C1C53 (stereo unspecified) | 28.1 µM | 58.2 µM |
| CCOC(=O)C1CCN(c2nc3cc(OC)ccc3cc2C#N)CC1 | 52.7 µM | > 100 µM |
| CCCn1nnc(NC(=O)COc2ccc(CC)cc2)n1 | 29.7 µM | > 100 µM |
| COc1ccccc1C(=O)NC(=S)/C=C1/N(C)c2ccccc2C1(C)C | 34.4 µM | 43.9 µM |
| Cc1cccc(C)c1OCCCCc1c(C)n[nH]c1C | 10.9 µM | 26.4 µM |
| O=C(CCl)Nc1nccs1 | 2.01 µM | 4.71 µM |
| CC(C)(C)c1csc(NC(=O)c2c(F)c(F)c(F)c(F)c2F)n1 | 17.7 µM | 25.2 µM |
| Cc1ccc(C(=O)N/C(=C/c2ccco2)C(=O)OCN2C(=O)c3ccccc3C2=O)cc1 | 6.83 µM | 49.9 µM |
| COc1ccc(NS(=O)(=O)c2ccc3nc(COc4cccc5ccccc45)[nH]c3c2)cc1 | 63.2 µM | > 100 µM |
| CCN(CCNCC(O)COc1ccccc1C(C)C)c1cccc(C)c1 (stereo unspecified) | 21.1 µM | 28.1 µM |
| CSc1ccc(CNC(=O)C2Cc3cc(S(=O)(=O)N4CCCCC4)ccc3N2C(C)=O)cc1 (stereo unspecified) | 46.4 µM | > 50 µM |
| COc1ccc2c3n(nc2c1)CCN=C3c1cc(Cl)c(N)c(Cl)c1 | 12.8 µM | 31.9 µM |
| O=c1/c(=C\c2ccc(O)cc2)sc2n1C(c1ccccc1)C(c1ccccc1)=NN=2 (stereo unspecified) | 55.7 µM | 87.2 µM |
| COC(=O)COc1ccc(-c2nn(C)c(=O)c3ccccc23)cc1 | 1.77 µM | 27.5 µM |

| SMILES | IC50 | IC90 |
| --- | --- | --- |
| COc1ccc(-c2cc3nc(CCl)[nH]c(=O)c3s2)cc1 | 0.88 µM | 14.5 µM |
| Cc1c([N+](=O)[O-])cnc(Sc2ccccc2)c1[N+](=O)[O-] | 2.01 µM | 7.59 µM |
| CCCOc1ccc(N2CC(C(=O)Nc3ccccn3)CC2=O)cc1 (stereo unspecified) | 16.3 µM | 59.1 µM |
| Cc1c(Cl)cccc1NC(=O)CN1CCC(C(O)(c2ccccc2)c2ccccc2)CC1 | 36.1 µM | > 100 µM |
| CCOC(=O)COc1ccc2c(c1)C(=O)CC(C)(c1cccnc1)O2 (stereo unspecified) | 9.2 µM | 18.4 µM |
| CN(C)c1ccc(O)c2c1CC1CC3[C@@H](N(C)C)C(=O)C(C(N)=O)C(=O)[C@]3(O)C(=O)C1C2=O (stereo partly specified) | 1.27 µM | 3.62 µM |
| COc1ccc(-c2cc3c(=O)n(CC(=O)NCCCN4CCC(Cc5ccccc5)CC4)ncn3n2)cc1 | 23.7 µM | 26.2 µM |
| CCOC(=O)c1ccc(Oc2nc(NC(C)(C)C)nc(N(C)C)n2)cc1 | 21.3 µM | 82.2 µM |
| CNc1ccc2nc3ccccc3[n+](C)c2c1 | 1.29 µM | 2.34 µM |
| CCOC(=O)c1sc2nc3n(c(=O)c2c1C)CCC(C)CC3 (stereo unspecified) | 17 µM | 39 µM |
| Cc1c(CCC(=O)NCCCn2ccnc2)c(=O)oc2c(C)c3occ(C(C)(C)C)c3cc12 | 23.1 µM | 36.3 µM |
| Cc1ccc(OC(=O)CCN2C(=O)c3ccccc3C2=O)cc1C | 28.6 µM | > 100 µM |
| CCn1c2ccccc2c2cc(CNCc3ccc(OC)cc3OC)ccc21 | 12.2 µM | 14.1 µM |
| O=C(NCC1CCN(c2ccc(S(=O)(=O)N3CCOCC3)cc2)CC1)c1ccc(Cl)cc1 | 31.9 µM | 51.8 µM |
| CC1=CC(=O)c2c(O)ccc(O)c2C1=O | 8.02 µM | 12.2 µM |
| O=C(O)c1ccccc1C(=O)NNc1ccc(Cl)cc1Cl |  | > 100 µM |
| COC(=O)c1ccc(COC(=O)CCc2nc(-c3ccccc3)c(-c3ccccc3)o2)cc1 | 21.5 µM | > 100 µM |
| CCOC(=O)COc1ccc(/C=C2\NC(=S)N(CC)C2=O)cc1 | 1.17 µM | 8.47 µM |
| CCN1C(N(C)CCc2c[nH]c3ccccc23)=N[C@@H](c2cccc(C(F)(F)F)c2)C(C(=O)OC)=C1C | 21.5 µM | 23.7 µM |
| Brc1cccc2sc(N3CCN(c4ccccc4)CC3)nc12 | 44.5 µM | > 100 µM |
| CC1CCc2c(C(=O)Nc3nccs3)csc2C1 (stereo unspecified) | 7.27 µM | 22.8 µM |

Reference: PubChem BioAssay AID449762 (Southern Research Specialized Biocontainment Screening …, 2010)
